For assay [1], the system named is rDNA. The experiment in a line: Quantitative PCR (QPCR) assay, rRNA inhibition (rDNA). It is filed as cell-based. Set-up: Selectivity: reference not given here. The note with it: for Selectivity: not defined in the patent; for IC50: rRNA inhibition from quantitative PCR assay. From the text:
In a specific assay embodiment, provided herein is a method for identifying a molecule that modulates ribosomal RNA (rRNA) synthesis, which comprises: contacting cells with a test molecule of Formula (I), (II), (III), (IV), (V), (VI), (VI′), (VII), or (VIII), contacting a ribosomal nucleotide sequence with one or more primers that amplify a portion thereof and a labeled probe that hybridizes to the amplification product, and detecting the amount of the amplification product by hybridization of the labeled probe, whereby a test molecule that reduces or increases the amount of amplification product is identified as a molecule that modulates rRNA synthesis. The labeled probe in some embodiments is added after the primers are added and the rRNA is amplified, and in certain embodiments, the labeled probe and the primers are added at the same time. The portion of ribosomal nucleotide sequence amplified sometimes is at the 5′ end of rDNA.
Real-time quantitative PCR (QPCR) method may be used to detect the changes of the target c-myc and the endogenous reference GAPDH gene copies in the same tube. Generally, cells (15,000 cells/well) are seeded on 96 well flat bottom plates (Corning, N.Y.) and incubated under normal growth conditions for overnight. The next day, the culture medium is exchanged for that containing anticancer drugs at various concentrations and incubated for 4 hrs in a humidified atmosphere of 5% CO2 at 37° C. Total RNA (tRNA) is extracted using the RNeasy 96 Kit (QIAGEN, CA). The concentration of the tRNA is determined by the RiboGreen RNA Quantitation Reagent (Molecular Probes, OR).
A reverse-transcription (RT) reaction may be conducted using 50 ng of tRNA from each well in a 25 μl reaction containing 1× TaqMan RT buffer, 2.5 uM random hexamers, 5.5 mM MgCl2, 0.5 mM each deoxynucleoside triphosphate (dNTP), 30 U MultiScribe Reverse Transcriptase, and 10 U RNase inhibitor. RT reactions are incubated for 10 min at 25° C., reverse-transcribed for 30 min at 48° C., inactivated for 5 min at 95° C., and placed at 4° C. All RT reagents may be purchased from Applied Biosystems, CA.
Real-Time QPCR reaction may be performed in a 50 μl reaction containing the 5 μl of cDNA, 1× Universal PCR Master Mix, 1× c-myc Pre-Developed Primers and Probe set, and 0.8×GAPDH Pre-Developed Primers and Probe set. Because of the relative abundance of GAPDH gene in Hela, GAPDH primers and probe concentration may be adjusted to get accurate threshold cycles (CT) for both genes in the same tube. The threshold cycle (CT) indicates the fractional cycle number at which the amount of amplified target reaches a fixed threshold. By doing so, the GAPDH amplification is stopped before it can limit the common reactants available for amplification of the c-myc. The ΔRn value represents the normalized reporter signal minus the baseline signal. ΔRn increases during PCR as amplicon copy number increases until the reaction approaches a plateau.
The c-myc probe is labeled with 6FAM™ dye-MGB and the GAPDH probe is labeled with VIC™ dye-MTB. Preincubation is performed for 2 min at 50° C. to activate AmpErase UNG enzyme and then for 10 min at 95° C. to activate AmpliTaq DNA Polymerase. DNA is amplified for 40 cycles of 15 sec at 95° C. and 1 min at 60° C. Human c-myc and GAPDH cDNA are amplified, detected, and quantitated in real time using the ABI Prism 7000 Sequence Detection system (Applied Biosystems, CA), which is set to detect both 6-FAM and VIC reporter dyes simultaneously.
The data may be analyzed using the ABI PRISM Sequence Detection System and Microsoft Excel. Relative quantitation is done using the standard curve and comparative CT method at the same time, and both methods gave equivalent results. The cycle at which the amplification plot crosses the CT is known to accurately reflect relative mRNA values. (See, Heid, et al., Genome Res. (1996) 6:986-994; Gibson, et al., Genome Res. (1996) 6:995-1001). […]

The test system of assay [2] is HCT-116 human colorectal carcinoma cells. Nature of the assay: Alamar Blue (AB) cell proliferation assay, HCT-116. It is filed as cell-based. The following applies: 96 h, Alamar Blue cell proliferation inhibition, HCT-116, four days. How it is done: A representative cell-proliferation assay protocol using Alamar Blue dye (stored at 4° C., use 20 ul per well) is described hereafter.
96-Well Plate Setup and Compound Treatment
a. Split and trypsinize cells.
b. Count cells using hemocytometer.
c. Plate 4,000-5,000 cells per well in 100 μl of medium and seed into a 96-well plate according to the following plate layout. Add cell culture medium only to wells B10 to B12. Wells B1 to B9 have cells but no compound added.
d. Add 100 μl of 2× drug dilution to each well in a concentration shown in the plate layout above. At the same time, add 100 μl of media into the control wells (wells B10 to B12). Total volume is 200 μl/well.
e. Incubate four (4) days at 37° C., 5% CO2 in a humidified incubator.
f. Add 20 μl Alamar Blue reagent to each well.
g. Incubate for four (4) hours at 37° C., 5% CO2 in a humidified incubator.
h. Record fluorescence at an excitation wavelength of 544 nm and emission wavelength of 590 nm using a microplate reader.
In the assays, cells are cultured with a test compound for approximately four days, the dye then is added to the cells and fluorescence of […] dye is detected after approximately four hours. Different types of cells can be utilized in the assays (e.g., HCT-116 human colorectal carcinoma cells, PC-3 human prostatic cancer cells and MiaPaca human pancreatic carcinoma cells). Anti-proliferative effects of representative compounds are provided hereafter.
Representative cassette dosing and bioavailability data are given in Table 8, along with cell proliferation inhibition (from Alamar Blue (AB) assay (e.g., Example 45 herein) and rRNA inhibition (from quantitative PCR (QPCR) assay (e.g., Example 46 herein).

Structures are written as SMILES.

In assay [1], `O=C(NCCN1CCCC1)c1c(=O)c2ccc(N3CCOCC3)nc2n2c1sc1ccccc12` yielded a Selectivity of 162 and an IC50 of 52 nM. In assay [2], the IC50 was found to be 59 nM.
In turn, `CN1CCCC1CCNC(=O)c1c(=O)c2ccc(N3CCOCC3)nc2n2c1sc1ccccc12` (stereo not drawn) showed a Selectivity in assay [1] of 42. The IC50 in assay [1] was 249 nM; in assay [2], 55 nM.
Regarding `Cn1c2ccccc2n2c3nc(N4CCOCC4)ccc3c(=O)c(C(=O)NCCN3CCCC3)c12`, in assay [1], the Selectivity worked out at 3 and the IC50 was 261 nM. Inhibition in assay [2] was half-maximal at 75 nM (IC50).
For the compound `CN1CCCC1CCNC(=O)c1cn2c3c(c(N4CCOCC4)c(F)cc3c1=O)Oc1ccccc1-2` (stereo not drawn), in assay [1], the Selectivity came out at 12 and it took 405 nM to reach half-maximal inhibition (IC50). This compound had an IC50 in assay [2] of 389 nM.
`CN1CCCC1CCNC(=O)c1c(=O)c2cc(F)c(N3CCOCC3)nc2n2c1sc1ccccc12` (stereo not drawn) yielded a Selectivity in assay [1] of 10. Moreover, the IC50 in assay [1] turned out to be 892 nM; in assay [2], 337 nM.
In the case of `O=C(NCCN1CCCC1)c1c(=O)c2cc(F)c(N3CCOCC3)nc2n2c1sc1ccccc12`, in assay [1], the Selectivity is recorded as 70 and the IC50 turned out to be 127 nM. Besides, the IC50 in assay [2] was determined as 81 nM.
The matching figures for `CN1CCN(C(=O)c2c(=O)c3cc(F)c(N4CCOCC4)nc3n3c2sc2ccccc23)CC1`: 7, 1150 nM and 386 nM.
Regarding `O=C(NCCN1CCC(O)C1)c1c(=O)c2cc(F)c(N3CCOCC3)nc2n2c1sc1ccccc12` (stereo not drawn), in assay [1], the Selectivity was 10 and the IC50 was 10 nM. In assay [2], half-maximal inhibition (IC50) was put at 55 nM.
Turning to `CN1CCC(N(C)C(=O)c2c(=O)c3cc(F)c(N4CCOCC4)nc3n3c2sc2ccccc23)C1` (stereo not drawn), in assay [1], the Selectivity is 5 and half-maximal inhibition (IC50) required 381 nM. The half-inhibitory concentration (IC50) in assay [2] is 174 nM.
`O=C(NCCNCC1CCCO1)c1c(=O)c2ccc(N3CCOCC3)nc2n2c1sc1ccccc12` (stereo not drawn): the Selectivity in assay [1] is 119. Also, the IC50 in assay [1] turned out to be 40 nM; in assay [2] it was 116 nM.
The matching figures for `O=C(NCCN1CC=CC1)c1c(=O)c2ccc(N3CCOCC3)nc2n2c1sc1ccccc12`: 22, 64 nM and 130 nM.
In the case of `Cn1cncc1CNC(=O)c1c(=O)c2ccc(N3CCOCC3)nc2n2c1sc1ccccc12`, in assay [1], the Selectivity amounted to 60 and the IC50 was found to be 262 nM. The compound further showed an IC50 in assay [2] of 174 nM.
In assay [1], `O=C(c1c(=O)c2ccc(N3CCOCC3)nc2n2c1sc1ccccc12)N1CCN(c2ncccn2)CC1` had a Selectivity of 13 and an IC50 of 578 nM. This compound also yielded an IC50 in assay [2] of 461 nM.
`O=C(c1c(=O)c2ccc(N3CCOCC3)nc2n2c1sc1ccccc12)N1CCN(c2ccccn2)CC1` yielded a Selectivity in assay [1] of 17. Moreover, the IC50 in assay [1] stood at 723 nM; in assay [2], 210 nM.
Regarding `O=C(NCCN1CC=CC1)c1cn2c3c(c(N4CCC(c5cnccn5)C4)c(F)cc3c1=O)Oc1cc3ccccc3cc1-2` (stereo not drawn), in assay [1], the Selectivity worked out at 24 and the IC50 came to 1040 nM. In assay [2], this compound registered an IC50 of 398 nM.
In assay [1], `O=C(NCCN1CC=CCC1)c1c(=O)c2ccc(N3CCOCC3)nc2n2c1sc1ccccc12` yielded a Selectivity of 64 and an IC50 of 32 nM. The IC50 in assay [2] turned out to be 98 nM.
The like results for `O=C(NCCN1CC=CC1)c1c(=O)c2cc(F)c(N3CCOCC3)nc2n2c1sc1ccccc12` were, in that order, 3, 42 nM and 392 nM.
On to `O=C(NCCNCCF)c1c(=O)c2ccc(N3CCOCC3)nc2n2c1sc1ccccc12`, for which, in assay [1], the Selectivity was found to be 48 and the IC50 was 59 nM. Half-maximal inhibition in assay [2] (IC50) required 135 nM.
On to `O=C(NCCNCC(F)(F)F)c1c(=O)c2ccc(N3CCOCC3)nc2n2c1sc1ccccc12`, for which, in assay [1], the Selectivity came out at 15 and inhibition was half-maximal at 502 nM (IC50). In assay [2], the IC50 came out at 535 nM.
The like results for `O=C(NCCNCCF)c1c(=O)c2cc(F)c(N3CCOCC3)nc2n2c1sc1ccccc12` were, in that order, 70, 147 nM and 484 nM.
For `O=C(NCCn1ccnc1)c1c(=O)c2ccc(N3CCOCC3)nc2n2c1sc1ccccc12`, in assay [1], the Selectivity stood at 24 and the midpoint of inhibition, the IC50, lay at 431 nM. The same compound registered an IC50 in assay [2] of 473 nM.
The matching figures for `Cn1ccnc1CNC(=O)c1c(=O)c2ccc(N3CCOCC3)nc2n2c1sc1ccccc12`: 9, 173 nM and 145 nM.
The matching figures for `O=C(NCCN1CCOCC1)c1c(=O)c2ccc(N3CCOCC3)nc2n2c1sc1ccccc12`: 16, 496 nM and 454 nM.
`Cn1ccnc1CNC(=O)c1c(=O)c2cc(F)c(N3CCOCC3)nc2n2c1sc1ccccc12`: in assay [1], the Selectivity is reported as 11 and half-maximal inhibition (IC50) was put at 134 nM. The same compound displayed an IC50 in assay [2] of 199 nM.
The matching figures for `Cc1nccn1CCNC(=O)c1c(=O)c2ccc(N3CCOCC3)nc2n2c1sc1ccccc12`: 21, 84 nM and 166 nM.
As for `O=C(NNC1=NCCN1)c1c(=O)c2cc(F)c(N3CCOCC3)nc2n2c1sc1ccccc12`, in assay [1], the Selectivity came to 893 and the IC50 is 28 nM. In assay [2], this compound had an IC50 of 1 nM.
Regarding `Cn1c2ccccc2n2c3nc(N4CCOCC4)c(F)cc3c(=O)c(C(=O)N3CCN4CCCC4C3)c12` (stereo not drawn), in assay [1], the Selectivity stood at 10. Besides, the values for the IC50 in assay [1] and in assay [2] were 841 nM and 843 nM, respectively.
The like results for `CN1CCN(c2ccc3c(=O)c(C(=O)NCc4ccccn4)c4sc5ccccc5n4c3n2)CC1` were, in that order, 111, 112 nM and 147 nM.
The compound `O=C(NCCNC1CC1)c1c(=O)c2cc(F)c(N3CCOCC3)nc2n2c1sc1ccccc12` returned a Selectivity in assay [1] of 53. Also, the values for the IC50 in assay [1] and in assay [2] were 248 nM and 132 nM, respectively.
For the compound `CN1CCCCC1CNC(=O)c1c(=O)c2ccc(N3CCOCC3)nc2n2c1sc1ccccc12` (stereo not drawn), in assay [1], the Selectivity was found to be 2778 and it took 9 nM to reach half-maximal inhibition (IC50). The IC50 in assay [2] amounted to 6 nM.
For `CN1CCCN(C(=O)c2c(=O)c3cc(F)c(N4CCOCC4)nc3n3c2sc2ccccc23)CC1`, the Selectivity in assay [1] amounted to 10. Also, the IC50 turned out to be 233 nM in assay [1] and 300 nM in assay [2].

Broadly, the IC50 is the concentration that gives 50% inhibition.
